From US20060234987A1, “Neuroprotective benzo 1 3 oxathiol 2 ones” (priority 2003, published 2006)
Like-named read-outs stand apart in the source and are kept apart here.

Experiments:
SCG neurons [1] = assay: Protection of SCG neurons from anti-NGF killing; type: cell-based, Sprague Dawley rats; details: Rattus norvegicus, Neuron; anti-NGF antibody, 48 hours, Alamar Blue viability; read-out: IC50, rescue from anti-NGF killing of cultured SCG neurons
Experimental: Neurotrophins are critical to the growth, development, and survival of small fiber neurons of the PNS. SCG neurons are neurons of the PNS that undergo apoptosis upon NGF withdrawal. In a typical experiment SCG neurons are cultured in the presence of NGF, which induces survival and neurite out-growth. After 5 days the NGF is removed by either the addition of anti-NGF polyclonal antibody (Sigma) or by repeated washings (4 times) with NGF free media, resulting in the apoptosis of up to 90% of the neurons after 48 hours, as measured by MTS staining. The addition of selected compounds of Formula I to the final cellular media provides upwards of 100% protection, at drug concentrations ranging from 10 to 50 μM (see Example 62).
Protection of SCG neurons from anti-NGF killing. SCG neurons were isolated from day 1 neonatal Sprague Dawley rats, plated at a cell density of 5,000 cells/well, and incubated in Biowhittaker Ultraculture containing 1% Penstrep, 1% L-glutamine, 0.7% ARAC, 3% rat serum, and NGF (50 ng/mL, Calomone Labs), at 37° C., under a 5% CO2 atmosphere. After 4 days the cells were treated with anti-NGF antibody (Sigma). At this time compound was added and the cells were maintained serum and NGF free for 48 hours, at which time viability of the neurons was assessed using Alamar Blue (Medicorp) staining. Table 3 summarizes selected IC50 values from compounds tested using this protocol.

SHP1 = target: T1, SHP1 (Homo sapiens, UniProt P29350); assay: Phosphatase profile: SHP1 inhibition (DIFMUP fluorescence); type: biochemical
T1 construct: made in house; host or cells: adenovirus vector
Experimental: A) SHP1 and SHP2: SHP1 and SHP2 adenovirus vectors were prepared. SHP1 and SHP2 were independently over expressed, isolated and purified using FPLC. Enzyme was diluted to 1000-1400 FU/min. Enzyme (45 μL) was uniformLy plated in 96 well plates and treated with serial dilutions of compound (2 μL in DMSO). Compound and enzyme are allowed to incubate for 30 minutes at RT before the addition of DIFMUP (100 μM). The solutions are allowed to incubate at RT for 10 minutes prior to reading the fluorescence, to provide IC50 curves using LSW Data Analysis Tool Box (MDL).

PTP-1B = target: T2, PTP-1B (Homo sapiens, UniProt P18031); assay: PTP-1B Assay; type: biochemical; details: Table 6
T2 construct: purchased BIOMOL Research Laboratories, Inc
T2 sequence (P18031 1-435): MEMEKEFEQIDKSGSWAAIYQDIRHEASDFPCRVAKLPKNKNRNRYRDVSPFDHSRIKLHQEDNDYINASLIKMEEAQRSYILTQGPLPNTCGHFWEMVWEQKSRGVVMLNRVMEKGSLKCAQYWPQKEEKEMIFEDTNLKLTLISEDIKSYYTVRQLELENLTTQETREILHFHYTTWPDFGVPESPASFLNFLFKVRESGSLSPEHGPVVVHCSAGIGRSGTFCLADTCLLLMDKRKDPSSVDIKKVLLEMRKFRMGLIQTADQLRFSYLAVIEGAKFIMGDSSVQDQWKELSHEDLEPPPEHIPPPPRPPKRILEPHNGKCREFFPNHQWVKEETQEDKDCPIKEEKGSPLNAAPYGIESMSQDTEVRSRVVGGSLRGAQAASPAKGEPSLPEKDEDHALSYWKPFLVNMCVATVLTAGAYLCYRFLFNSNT
Experimental: B) PTP-1B Assay: Inhibition of the phosphatase PTP1B was performed according to reported procedures (Puius, Y. A. et a. Proc. Natl. Acad. Sci., 1997, 94, 13420; Liu, F. J. Biol. Chem., 1996, 271, 31290). PTP1B was purchased from BIOMOL Research Laboratories, Inc.

SCG neurons [2] = assay: In vitro protection of SCG neurons from cisplatin killing; type: cell-based, Sprague Dawley rats; details: Rattus norvegicus, Neuron; cisplatin 3 μg/mL, 48 hours, MTS viability; read-out: IC50 (±1 μM), protection of SCG neurons against cisplatin killing
Experimental: The mechanism of cisplatin's anti-cancer action is not fully understood, but is believed to involve DNA binding and […]. Cisplatin is toxic to neurons. The addition of cisplatin (3 μg/mL) to cultured SCG neurons induces apoptosis of upwards of 80% of the neurons. The addition of selected compounds of Formula I to the cellular media, concurrently with cisplatin, protects upwards of 100% of the neurons, at drug concentrations ranging from 1 to 50 μM (see Example 64).
In Vitro Protection of SCG neurons from cisplatin killing. SCG neurons were isolated from day 1 neonatal Sprague Dawley rats, plated at a cell density of 10,000 cells/well, and incubated in Biowhittaker Ultraculture containing 1% Penstrep, 1% L-glutamine, 0.7% ARAC, 3% rat serum, and NGF (50 ng/mL, Calomone Labs) at 37° C., under a 5% CO2 atmosphere. After 5 days the cells were treated with compound and cisplatin (3 μg/mL). Viability was assessed 48 hours later using MTS (Promega) staining.

T1 sequence (P29350 whole entry): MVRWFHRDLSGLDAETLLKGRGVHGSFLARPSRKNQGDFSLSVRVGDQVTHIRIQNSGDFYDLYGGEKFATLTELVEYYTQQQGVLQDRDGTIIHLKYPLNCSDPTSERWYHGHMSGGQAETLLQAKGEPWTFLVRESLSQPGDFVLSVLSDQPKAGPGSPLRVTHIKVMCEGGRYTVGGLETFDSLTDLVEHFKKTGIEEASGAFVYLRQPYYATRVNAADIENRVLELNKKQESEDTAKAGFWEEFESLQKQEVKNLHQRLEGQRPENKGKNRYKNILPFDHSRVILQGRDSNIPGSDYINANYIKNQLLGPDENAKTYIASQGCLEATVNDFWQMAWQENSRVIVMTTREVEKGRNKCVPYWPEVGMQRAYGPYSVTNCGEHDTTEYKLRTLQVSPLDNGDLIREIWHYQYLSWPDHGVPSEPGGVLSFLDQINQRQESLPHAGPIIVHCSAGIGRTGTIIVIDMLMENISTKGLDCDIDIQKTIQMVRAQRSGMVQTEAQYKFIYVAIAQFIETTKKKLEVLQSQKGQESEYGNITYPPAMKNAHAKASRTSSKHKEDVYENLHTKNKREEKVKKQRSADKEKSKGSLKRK

## O=c1oc2c(Sc3ccc4ccccc4c3)cc(O)c(Sc3ccc4ccccc4c3)c2s1 [Compound 30, 4,7-Bis-((2-naphthyl)sulfanyl)-5-hydroxybenzo[1,3]oxathiol-2-one]
SCG neurons [1]
  IC50: > 30 µM
SHP1; Table 6, read-out: SHP1 IC50
  IC50: 5.41 µM
PTP-1B
  PTP-1B IC50: no inh.

## O=c1oc2c(Sc3ccc4ccccc4c3)cc(O)cc2s1 [Compound 23, 5-Hydroxy-7-((2-naphthy)sulfanyl)benzo[1,3]oxathiol-2-one]
SCG neurons [2]
  IC50: 15 µM
SCG neurons [1]
  IC50: 25 µM
SHP1; FIG. 1 legend, read-out: SHP1 IC50 (FIG. 1 inhibition curve)
  IC50: 10.6 µM
SHP1; Table 6, read-out: SHP1 IC50
  IC50: 10.9 µM
PTP-1B
  PTP-1B IC50: no inh.
